Measurements published in US20210177823A1, “NEUROMODULATING COMPOSITIONS AND RELATED THERAPEUTIC METHODS FOR THE TREATMENT OF CANCER” (Flagship Pioneering Innovations V, Inc., priority 2016, published 2021).
Entries after “also recorded” stand apart in the source; their conditions may differ.

Assays:
[1] = tested on: pancreatic cancer cell lines (CFPAC, PANC-1, PL45, ASPC-1, CAPAN-1, CAPAN-2); experiment: Cancer cell growth in low-serum spheroid culture, Cell Titer Glo readout; assay type: cell-based; conditions: adenosine at 10-200 μM, over 24 hours
[2] = tested on: MIAPaCa2 Fluc cells; experiment: Orthotopic MIAPACA2 pancreatic cancer model, tumor weight at end of study; assay type: in vivo, Nude mice (Nu/Nu); conditions: daily IP, three weeks after initiation of dosing; for reduction in tumor weight at the end of study: compared to vehicle-treated group
Method: MIAPaCa2 Fluc cells were grown in DMEM tissue culture media with 10% fetal calf serum, 2.5% Horse Serum, 1% penicillin/streptomycin and Puromycin (20 ug/mL). On the day of implantation, cells were washed in PBS, trypsinized and resuspended at a density of 2×10^6 cells/ml in a Matrigel solution prior to being implanted into the pancreas a volume of 0.05 mL using a 25 G needle. Nude mice (Nu/Nu) were anesthetized and the pancreas exposed via peritoneal incision and physical displacement of the spleen. Cells were injected into the pancreas in a total volume of 0.05 mL and the surgical wound closed with VetBond. Bioluminescence was assessed by administration of D-luciferin and imaging on an IVIS system. Mice with leakage of bioluminescent signal immediately after surgery were removed from study. Mice were randomized into groups of equal mean bioluminescence approximately 14 days post-implant. […] One group of mice received haloperidol alone, a second group received gemcitabine chemotherapy (the standard of care for human pancreatic cancer treatment), and a third group received a combination of haloperidol and gemcitabine. For groups also receiving gemcitabine, gemcitabine was dosed 50 mg/kg IP daily. Tumor growth was determined bi-weekly with bioluminescent measurement. The study was terminated three weeks after initiation of drug dosing. At termination, mice were sacrificed and pancreas collected and weighed.

[3] = tested on: Glioblastoma lines A172, LN-18, T98G, LN-229, U87 MG, and U118 MG; experiment: Colony formation assay in glioblastoma cell lines (Cyto60 fluorescence); assay type: cell-based; conditions: 1 μM to 20 μM, day 9, LN-229, U87, U118
Method: Glioblastoma lines A172, LN-18, T98G, LN-229, U87 MG, and U118 MG were passaged in culture per manufacturer's recommendations.
On day 0 of the experiment, cells were plated in 24 well plates at a density of 500 cells per well in triplicate. On day 1, DRD2 antagonists haloperidol and L741,626 were added to the wells at a range of concentrations between 1 μM and 20 μM. Media was changed every three days. On day 9 of the experiment, cells were fixed with formalin and stained with Cyto60 (a nucleic acid stain). Fluorescence was read on a Licor-Odyssey imager to assess the number of viable cells in the assay.

[4] = tested on: patient-derived xenograft tumors from patient 5197; experiment: SCLC PDX subcutaneous tumor with implanted microdose drug delivery device, immunohistochemistry (CC3, phospho-AKT); assay type: in vivo, nude mice; conditions: intratumoral device reservoir, 24 hours in situ; patient 5197 PDX
Method: (§1) Small cell lung cancer cells derived from a human donor (CrownBio, San Diego Calif.) were injected subcutaneously into the flanks of nude mice. Tumors were grown to a size of approximately 6-10 mm before device implantation.
(§2) Microdose drug delivery devices were manufactured as described in Jonas et al., Sci. Transl. Med. 7, 284ra57 (2015). Briefly, cylindrical, micro-scale devices with 0.82 (diameter)×4 mm (length) were manufactured from medical-grade Delrin acetyl resin blocks (DuPont) by micromachining (CNC Micromachining Center, Cameron). Circular reservoirs were shaped on the outer surface of devices in dimensions of 230 um (diameter)×250 um (depth). Drug-polymer mixtures were packed into device reservoirs using a tapered, metal needle (Electron Microscopy Sciences) until the reservoirs were completely filled.
Devices were implanted directly into the mouse tumor using a 19-gauge spinal biopsy needle (Angiotech) and a retractable needle obturator to push the device into the tissue. Devices containing the drugs remained in situ for 24 hours.
(§3) The flank tumor was excised and the tissue containing the device was fixed for 24 hours in 10% formalin and perfused with paraffin. This specimen was sectioned using a standard microtome and tissue sections were collected from each reservoir. Sections were antibody-stained by standard immunohistochemistry using antibodies against cleaved-caspase-3 (CC3), KI-67, and phospho-AKT (Cell Signaling) and scored using an ImageJ image (v1.48) analysis algorithm in a blinded manner.

[5] = tested on: BXPC3 pancreatic cancer cells; experiment: Cancer cell growth in low-serum spheroid culture, Cell Titer Glo readout; assay type: cell-based; conditions: at low micromolar concentration; tested 10 nM-10 uM
Method: (§4) Cancer cell lines were grown in appropriate cell culture medium. On day 0, cells were plated in black organogenix nanocult 96-well plates with low-bind honeycomb pattern. Cells were plated in a low serum medium to increase the dynamic range observable for growth promotion. Within three days spheroids were visible. On day 1 post plating, compounds were added at a range of doses to the cells, between mid-nanomolar and low micromolar, spanning at least a 100× dose range. On day 4 post plating, number of cells are quantified by staining with Cell Titer Glo and reading on a plate reader. We observed that adenosine at 10-200 μM enhances the growth of multiple pancreatic cancer cell lines (CFPAC, PANC-1, PL45, ASPC-1, CAPAN-1, CAPAN-2) by at least 10% increased signal over 24 hours than untreated cells. Upon follow-up of the adenosine pathway, we performed a similar assay with chemical antagonists of adenosine receptors at a range of concentrations between 10 nM-10 uM.

[6] = tested on: NCI-H82 small cell lung cancer cells; experiment: as above; assay type: cell-based; conditions: at low micromolar concentration; tested 10 nM-10 uM
Method: as §4

[7] = tested on: patient-derived xenograft tumors from patient 5217; experiment: SCLC PDX subcutaneous tumor with implanted microdose drug delivery device, immunohistochemistry; assay type: in vivo, nude mice; conditions: patient 5217 PDX, ~10× lower DRD2 mRNA than patient 5197; device 24 hours in situ
Method: as §1, §2
Devices were implanted directly into the mouse tumor using a 19-gauge spinal biopsy needle (Angiotech) and a retractable needle obturator to push the device into the tissue. […]
as §3, with “This specimen was sectioned using a standard microtome and tissue sections were collected from each reservoir.” left out

Nc1ncnc2c1ncn2[C@@H]1O[C@H](CO)[C@@H](O)[C@H]1O [adenosine]
enhancement of growth, increased signal than untreated cells [1]: at least 10%

O=C(CCCN1CCC(O)(c2ccc(Cl)cc2)CC1)c1ccc(F)cc1 [haloperidol]
reduction in tumor weight at the end of study [2]: ~50% | tumor weight at the end of study ([2]; vehicle 300 mg): 150 mg | number of glioblastoma cells growing in culture compared to DMSO control [3]: reduce the number of glioblastoma cells

Nc1ccn([C@@H]2O[C@H](CO)[C@@H](O)C2(F)F)c(=O)n1 [gemcitabine]
reduction in tumor weight at the end of study [2]: equivalent

N.N.[Cl][Pt][Cl] [cisplatin]
cell killing as measured by CC3 positive tissue [4]: minimal cell killing

CCCn1c(=O)c2[nH]c(C34CC5CC(CC3C5)C4)nc2n(CCC)c1=O [KW3902]
inhibition of growth of BXPC3 pancreatic cancer cells [5]: inhibited the growth | inhibition of growth of NCI-H82 small cell lung cancer cells [6]: inhibited the growth

O=C(Cc1ccccc1)Nc1nc2ccc(Cl)cc2c2nc(-c3ccco3)nn12 [MRS-1220]
inhibition of growth of NCI-H82 small cell lung cancer cells [6]: inhibited the growth

OC1(c2ccc(Cl)cc2)CCN(Cc2c[nH]c3ccccc23)CC1 [L-741,626]
cell killing as measured by CC3 positive tissue [4]: dose-dependent cell killing | phospho-AKT staining gradient (dopamine receptor signaling) [4]: negative gradient | impact of treatment on tumor [7]: at all not impacted; also recorded: not impacted at all | number of glioblastoma cells growing in culture compared to DMSO control [3]: reduce the number of glioblastoma cells
